Measurements as given in US20160010059A1, “EXPANSION OF HEMATOPOIETIC PROGENITOR CELLS BY HISTONE METHYLTRANSFERASE G9a INHIBITION” (The Regents of the University of California, priority 2013, published 2016).
“Also recorded” adds a separate entry of the source.

Assays:
[1] = tested on: lethally irradiated C57BL/6 mice; experiment: Transplantation of cultured HSCs into lethally irradiated mice (chimerism); assay type: in vivo, mouse
H3K9me2 / H3K9me3 = experiment: Histone western blot and immunofluorescence in UNC0638 treated cells; assay type: cell-based, mouse
Experimental: (§1) For western blot, FACS sorted cells were lysed in RIPA buffer, and run in a 15% gradient SDS-page (BIO-RAD). Histone modifications were assessed with antibodies against H3k27me3 (07-449 Millipore), H3 Acetylated (06-599), H4K16Ac (07-329), H3k4me3 (07-473), total H3 (06-755), H3k36me3 (Ab9050 abcam), H3k9me2 (Ab1220), H3k9me3 (Ab8898). Cells were incubated with the HDAC inhibitor trichostatin A (Cell signaling) at 37° C. for 2 hours to induce histone acetylation. For immunostaining cells were sorted onto poly-lysine coated slides, fixed with 2% PFA, permeabilized with 0.1% triton-x in PBS, and stained with H3k9me3 (Ab8898), Lamin B (sc-6217) antibodies followed by an Alexa488-Donkey-α-goat and a Alexa594-goat-α-rabbit secondary antibody (Invitrogen) plus DAPI. Images were acquired using a PerkinElmer Volocity spinning disk confocal microscope. Image analysis was done using ImageJ software (Schneider et al., 2012).

KLS cells = experiment: Replating of cultured cells into liquid culture with SCF and TPO (proliferation capacity); assay type: cell-based, mouse
[2] = tested on: H3k9me2 on putative G9a targets; experiment: ChIP-qPCR of histone marks on putative G9a targets identified by RNA-seq; assay type: cell-based, mouse; settings: n=3
HSC-related genes = experiment: Global gene expression analysis (RNA-seq) of KLS fractions after 5 days in vitro culture; assay type: cell-based, mouse; settings: 5 days culture
histone acetylation = experiment: Histone western blot after HDAC inhibitor treatment (assay sensitivity control); assay type: cell-based, mouse; settings: 37° C. for 2 hours
Experimental: as §1

SMILES | lineage readout after transplantation ([1]; 24 hrs or 5 days culture) | Percentage of chimerism / engraftment ([1]; cells cultured for 24 hrs with UNC0638 before transplantation, n=10 per group) | Percentage of chimerism / engraftment ([1]; cells cultured for 5 days on AFT024 feeder layers with UNC0638 before transplantation, n=10) | amount of H3K9me2 by western blot (H3K9me2 / H3K9me3; UNC0638 treated cells) | distribution of H3K9me3 by immunofluorescence (H3K9me2 / H3K9me3; compared to the DMSO treated control) | proliferation capacity (KLS cells; after day 5 of in vitro culture) | proliferation capacity (KLS cells; replating equal amounts of KLS after 5 days culture) | number of cells (KLS cells; replating equal amounts of Kit+ cells, 10 days in culture) | levels of H3k9me2 on putative G9a targets [2] | levels of H3k9me3 on putative G9a targets [2] | levels of active mark H3K4me3 on putative G9a targets [2] | downregulated genes (HSC-related genes; Egr1, Ndn, Robo4) | upregulated genes (HSC-related genes; vs DMSO control, DESEQ padj<0.01, e.g. Sox6, Itga2b, Gata1, Fgf3) | global levels of histone acetylation (histone acetylation)
COc1cc2c(NC3CCN(C(C)C)CC3)nc(C3CCCCC3)nc2cc1OCCCN1CCCC1 [UNC0638] | no defects in lineage potential; also recorded: readout in all 5 lineages | minor increase in engraftment; also recorded: positive trend in higher chimerism for UNC0638 treated cells in all myeloid and lymphoid lineages, though not significant | modest increase in the levels of engraftment; also recorded: significantly higher % of GM and B chimerism | effect is highly enriched in the KLS fraction | more disperse distribution of this histone mark | increase proliferation capacity after day 5 | equal proliferation capacity as the KLS control cells | significant higher number of cells after 10 days in culture | significantly lower amount of H3K9me2 at their promoter; also recorded: significantly reduced levels of H3k9me2 | trend to lower amount of H3K9me3; also recorded: mild trend toward H3k9me3 reduction | no differences for the active mark H3K4me3 | significantly downregulation of some genes | significant number of HSC-related genes upregulated; also recorded: significant number of upregulated HSC-related genes | 
CC(/C=C/C(=O)NO)=C\[C@@H](C)C(=O)c1ccc(N(C)C)cc1 [trichostatin A] |  |  |  |  |  |  |  |  |  |  |  |  |  | significantly increased the global levels of histone acetylation
